Experimental data taken from patent publication US20040176468A1 (Wyeth, priority 1999, published 2004).
Counter-ions that a name gives are not always drawn.

Molecular target: NE uptake (Rattus norvegicus, UniProt Q63380)
Assay: Neurotransmitter uptake inhibition: NE uptake, crude synaptosomal preparation
Type: biochemical
Settings: rat cortex crude synaptosomal preparation; for IC50: 0.1 μM 3H-NE, 37° C. for 6 minutes
Experimental: Male Sprague-Dawley rats (180-260 g, Charles River) were used in all neurochemical assays. Rats were housed in temperature-controlled quarters on a 12 hr light/12 hr dark cycle with free access to food and water.
Neurotransmitter Uptake Inhibition
Uptake experiments were performed using a crude synaptosomal preparation made from the brain tissue of adult male Sprague-Dawley rats. The cortex of 1 rat for NE and 5-HT uptake was removed on ice and homogenized in 20 volumes of 0.32 M sucrose/g tissue weight using a Potter-Elvehjem teflon homogenizer (3 strokes at 840 rpm). The homogenate was then centrifuged for 12 minutes at 1,000×g at 0-4° C. The resulting supernatant was decanted into a chilled glass beaker and kept on ice until assayed. Protein concentration was determined by the method of Lowry et al. (1).
For these experiments, all compounds were run in duplicate in concentrations of 0.003-30.0 μM. Each tube received buffer (790 μl in drug tubes, 800 μl in control tubes), 10 μl of drug or standard. (0.1 μM DMI for NE uptake and 3.0 μM zimelidine HCl for 5-HT uptake), 100 μl isotope (0.1 μM ^3H—NE and 0.05 μM ^14C-5-HT), and 100 μl tissue. Tubes were incubated at 37° C. for 6 minutes. Incubation was terminated by the addition of 2.5 ml buffer followed by vacuum filtration using a Brandel filtration manifold with Whatman GF/B glass fiber filters and a second wash with 2.5 ml buffer. Filters were added to 10 ml Hydrofluor, shaken for 15 minutes and counted in a Packard 460CD scintillation counter equipped with dual-label dpm data reduction. Results were expressed as pmol uptake/mg protein/min.

Chain of NE uptake (Q63380 1-617): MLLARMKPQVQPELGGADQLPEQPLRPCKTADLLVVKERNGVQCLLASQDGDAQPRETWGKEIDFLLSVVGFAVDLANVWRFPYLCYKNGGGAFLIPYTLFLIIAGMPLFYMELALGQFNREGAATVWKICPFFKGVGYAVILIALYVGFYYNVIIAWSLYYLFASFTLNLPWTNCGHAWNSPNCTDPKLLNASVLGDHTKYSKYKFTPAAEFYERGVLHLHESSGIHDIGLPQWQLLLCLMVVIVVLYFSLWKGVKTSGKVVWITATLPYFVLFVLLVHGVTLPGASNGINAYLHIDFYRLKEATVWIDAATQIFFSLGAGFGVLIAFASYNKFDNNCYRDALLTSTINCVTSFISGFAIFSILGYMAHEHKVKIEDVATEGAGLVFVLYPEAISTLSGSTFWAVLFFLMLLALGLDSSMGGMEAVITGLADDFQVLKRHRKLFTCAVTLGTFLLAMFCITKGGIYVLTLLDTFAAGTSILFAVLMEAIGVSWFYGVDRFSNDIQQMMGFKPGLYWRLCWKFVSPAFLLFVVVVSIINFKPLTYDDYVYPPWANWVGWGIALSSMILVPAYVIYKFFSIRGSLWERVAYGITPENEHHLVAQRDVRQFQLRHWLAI

Row | inhibition at 0.3 µM (at 0.3 μM) | IC50 | SMILES
1 | 75% |  | CN(C)CC(c1ccc(O)cc1)C1(O)CCCCC1 (racemic) [O-Desmethyl venlafaxine, 4-[1-(2-dimethylamino)-2-(1-hydroxycyclohexyl)-ethyl]-phenol]
2 |  | 270 nM | CN(C)C[C@@H](c1ccc(O)cc1)C1(O)CCCCC1 [(−)O-Desmethyl venlafaxine, R(−)-4-[2-(Dimethylamino)-1-(1-hydroxycyclohexyl)ethyl]phenol fumarate hydrate salt]
3 |  | 720 nM | CN(C)C[C@H](c1ccc(O)cc1)C1(O)CCCCC1 [(+)O-Desmethyl venlafaxine, S (+)-4-[2-(Dimethylamino)-1-(1-hydroxycyclohexyl)ethyl]phenol fumarate hydrate salt]
